The values below come from patent US9839622B2, “Methods of treating hypothalamic obesity” (Zafgen, Inc., priority 2012, dated 2017).

The structures appear in SMILES notation.

Test [1] can be described thus: Mouse model of hypothalamic injury (gold thioglucose). Type of test: in vivo, C57/BL6 mice. The note with it: 0.1 mg/kg daily subcutaneous. Here is the method:
FIG. 1 depicts body weight change (percent) of C57/BL6 mice treated with single dose of 0.5 g/kg gold thioglucose, and after 40 days, started on 0.1 mg/kg daily subcutaneous dose of 6-O-(4-dimethylaminoethoxy)cinnamoyl fumagillol (ZGN-440). FIG. 2 depicts normalized food intake in GTG mice to the level of normal mice that were not treated with gold thioglucose, after 0.1 mg/kg daily subcutaneous dose of 6-O-(4-dimethylaminoethoxy)cinnamoyl fumagillol. Gold thioglucose (GTG) is a chemical treatment used as a model of hypothalamic injury. C57/BL6 mice were treated with single dose of 0.5 g/kg gold thioglucose. After 40 days a cohort was started on 0.1 mg/kg daily subcutaneous dose of 6-O-(4-dimethylaminoethoxy)cinnamoyl fumagillol (ZGN-440). […] (FIG. 1). The food intake level of GTG treated mice was increased to over 3 g/day/mouse, where in GTG mice treated with ZGN-440 the food intake decreased to the level of normal mice that were not treated with gold thioglucose (below 3 g/day). (FIG. 2).

A short description of test [2]: Treatment of obese humans also taking anti-depressants known to cause hypothalamic obesity. The format is in vivo, human. The note with it: obese humans on anti-depressants, average dose 1.44 mg twice weekly subcutaneous. Here is the method:
FIG. 3 depicts percentage reduction in body weight by up to seven weeks of treatment with 6-O-(4-dimethylaminoethoxy)cinnamoyl fumagillol (ZGN-440; average dose of 1.44 mg administered twice weekly by subcutaneous administration, n=5) or placebo (administered twice weekly by subcutaneous administration, n=2) in obese human patients treated otherwise for depression with mirtazapine, sertraline, imipramine, paroxetine, or amitryptyline.
Five of these patients were also administered ZGN-440 (average dose of 1.44 mg, administered twice weekly by subcutaneous administration). On average, patients lost 5.4 percent of their baseline body weight over the seven week treatment. […] At baseline, the average (±SEM) body weight was 100.2±3.2 kg, and the average body mass index was 38.8±1.7 kg/m^2. […] (FIG. 3).

As to `CO[C@@H]1[C@H](OC(=O)/C=C/c2ccc(OCCN(C)C)cc2)CC[C@]2(CO2)[C@H]1[C@@]1(C)O[C@@H]1CC=C(C)C` [ZGN-440, 6-O-(4-dimethylaminoethoxy)cinnamoyl fumagillol], the body weight change result in test [1] (GTG (0.5 g/kg single dose) C57/BL6 mice, started after 40 days, FIG. 1) is recorded as “Significant weight loss”. Moreover, the food intake result in test [1] (GTG mice, untreated GTG mice over 3 g/day/mouse, FIG. 2) is listed as “below 3 g/day”. Further, in test [2] (n=5, seven week treatment, FIG. 3), the “loss of baseline body weight (average)” value was 5.4%. Moreover, in test [2] (up to seven weeks, placebo failed to lose weight), the “weight loss vs. placebo (percent change of body weight from baseline, Student's t test)” value is “statistically significant”.
